Measurements reported in PMC12775434, “Ultra-large virtual screening unveils potent agonists of the neuromodulatory orphan receptor GPR139” (Nature Communications, 2025).
“And” between values parts separate entries of the source, which are not always exact repeats. Identical values can stand only once.

Key:
Type in all cases: cell-based
GPR139 (Gi3 activation) = target: T1, GPR139 (Gi3 activation) (Homo sapiens, UniProt Q6DWJ6); assay: BRET G protein activation (dissociation) assay, Gi3, HEK293A; settings: for G protein activation, Gi3: individual replicates
T1 construct: expressed in transfected cells; host or cells: HEK293A (transient, Lipofectamine 2000)
T1 sequence (Q6DWJ6 1-353): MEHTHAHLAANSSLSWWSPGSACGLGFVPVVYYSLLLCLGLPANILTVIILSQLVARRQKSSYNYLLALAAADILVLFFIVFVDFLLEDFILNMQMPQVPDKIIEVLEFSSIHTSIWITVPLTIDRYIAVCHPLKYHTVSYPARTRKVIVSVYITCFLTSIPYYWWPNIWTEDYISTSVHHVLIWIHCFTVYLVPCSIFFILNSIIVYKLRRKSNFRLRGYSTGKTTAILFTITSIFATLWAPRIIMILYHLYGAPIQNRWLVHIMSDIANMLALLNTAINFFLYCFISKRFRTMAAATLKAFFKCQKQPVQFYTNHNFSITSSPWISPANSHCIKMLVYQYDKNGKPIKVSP
Method: (§1) Primary screening and pharmacological characterization of compounds were performed using a CHO-K1 cell line that stably expresses human GPR139 (GPR139-CHOk1). The GPR139-CHOk1 cell line was kindly provided by H. Lundbeck A/S, Denmark[24]. GPR139-CHOk1 cells were grown in Ham’s F-12 Kaighn’s Modification Medium (ThermoFisher #21127030) supplemented with 10% dialyzed fetal bovine serum (US origin, ThermoFisher #26400044), 100 units/mL Penicillin-Streptomycin (ThermoFisher #15140122), and 1 mg/mL Geneticin (ThermoFisher #11811031). […] M1R-CHOk1 cells were purchased from The Missouri S&T cDNA Resource Center (#CEM100TN00). M1R-CHOk1 cells were grown in Ham’s F12 Medium (ThermoFisher #21765029) supplemented with 10% fetal bovine serum (Brazilian origin, ThermoFisher #10270106), 100 units/mL Penicillin-Streptomycin, and 0.25 mg/mL Geneticin. HEK293A cells transiently transfected with GPR139 were used for additional pharmacological assessment of signaling pathways activated by GPR139. HEK239A cells were generously provided by Dr. Asuka Inoue, Tohoku University, Japan. HEK293A cells were grown in Dulbecco’s Modified Eagle Medium (ThermoFisher #31966047) supplemented with 10% dialyzed fetal bovine serum and 100 units/mL Penicillin-Streptomycin. Cell lines were maintained at 37 °C in humidified incubator equilibrated with 5% CO2.
(§2) The G protein dissociation assay developed by the lab of Kirill A. Martemyanov was used to measure the coupling of multiple G proteins by GPR139[57]. The assay was performed as described previously with minor modifications. HEK293A cells were reverse transfected 20–24 h prior to assay. 50,000 cells were plated in each well of white opaque tissue culture treated 96-well plates (PerkinElmer #6005680) previously coated with poly-D-lysine. Transfection solutions were prepared as described, and 10 µL transfection solution was mixed with 100 µL cells in each well. The cells in each well were transfected with 18.9 ng GPR139, 6.3 ng Venus 1-155 Gγ2, 6.3 ng Venus 159-239 Gβ1, 6.3 ng masGRK3ct-NanoLuc and 12.6 ng Gαi2, 12.6 ng Gαi3, 12.6 ng GαoA, 12.6 ng Gαq or 25.2 ng Gα12 using 375 nL Lipofectamine 2000 Transfection Reagent. Transfections with Gαq and Gα12 contained 6.3 ng DNA of the active subunit S1 of pertussis toxin (PTX-S1). Each transfection was normalized to 150 ng total DNA with pcDNA3.1. The BRET biosensors were a kind gift from the Martemyanov lab. On the day of the experiment the cells were washed with HEPES buffer. Test compounds were diluted in HEPES buffer from DMSO stocks (final DMSO concentration of maximally 0.3%). NanoLuc Luciferase substrate NanoGlo—furimazine (Promega #N1120) was diluted 1000-fold (final) in HEPES buffer. NanoGlo and test compounds were added, and measurements were performed after 10 s for Gi3, 15 s for Gi2 and GoA, 20 s for Gq, and 90 s for G12—the timepoint where maximal signal occurred with each G protein, ensuring proper determination of the potency for the G protein coupling. Simultaneous dual emission was measured at 535 nm and 475 nm on LUMIstar Omega Microplate Reader (BMG Labtech) at room temperature. The BRET ratio of 535 nm/475 nm (Venus/NanoLuc), reflecting the dissociation of the G protein heterotrimer, was used to determine the G protein activation. The basal BRET ratio obtained with buffer condition was subtracted from the absolute BRET ratio at a given test compound concentration, and the responses were normalized to the one obtained with 10 µM JNJ-63533054 for the activation of Gi2.
(§3) Pharmacological data and statistical analyses were performed in GraphPad Prism v9–10 (Graphpad Software Inc., San Diego, CA), which are also specifically described in the figure and table legends. […]

GPR139 (Gq activation) = target: T2, GPR139 (Gq activation) (Homo sapiens, UniProt Q6DWJ6); assay: BRET G protein activation (dissociation) assay, Gq, HEK293A; settings: for G protein activation, Gq: individual replicates
T2 construct: expressed in transfected cells; host or cells: HEK293A (transient, Lipofectamine 2000)
T2 sequence (Q6DWJ6 1-353): T1 sequence (Q6DWJ6 1-353)
Method: as §1, §2, §3

GPR139 (GoA activation) = target: T3, GPR139 (GoA activation) (Homo sapiens, UniProt Q6DWJ6); assay: BRET G protein activation (dissociation) assay, GoA, HEK293A; settings: for G protein activation, GoA: individual replicates
T3 construct: expressed in transfected cells; host or cells: HEK293A (transient, Lipofectamine 2000)
T3 sequence (Q6DWJ6 1-353): T1 sequence (Q6DWJ6 1-353)
Method: as §1, §2, §3

[1] = HEK293-A, normalized to JNJ-63533054 (JNJ(S))

C[C@@H](NC(=O)CNC(=O)c1cccc(Cl)c1)c1ccccc1 [JNJ(R), reference compound]
Emax (GPR139 (Gi3 activation); [1]): 35 ± 6% | EC50 (GPR139 (Gi3 activation); Supplementary Table 6, read-out: pEC50 Gi3 (converted)): 3.98 µM | G protein activation, Gi3 (GPR139 (Gi3 activation); log [compound] M -4.5): 36 % of JNJ-63533054 at Gi2 and 21 % of JNJ-63533054 at Gi2 and 35 % of JNJ-63533054 at Gi2 | G protein activation, Gi3 (GPR139 (Gi3 activation); log [compound] M -5.0): 29 % of JNJ-63533054 at Gi2 and 16 % of JNJ-63533054 at Gi2 and 28 % of JNJ-63533054 at Gi2 | G protein activation, Gi3 (GPR139 (Gi3 activation); log [compound] M -5.5): 20 % of JNJ-63533054 at Gi2 and 7 % of JNJ-63533054 at Gi2 and 23 % of JNJ-63533054 at Gi2 | G protein activation, Gi3 (GPR139 (Gi3 activation); log [compound] M -6.0): 11 % of JNJ-63533054 at Gi2 (2×) and 4 % of JNJ-63533054 at Gi2 | G protein activation, Gi3 (GPR139 (Gi3 activation); log [compound] M -6.5): 5.48 % of JNJ-63533054 at Gi2 and -1.21 % of JNJ-63533054 at Gi2 and 3.19 % of JNJ-63533054 at Gi2 | G protein activation, Gi3 (GPR139 (Gi3 activation); log [compound] M -7.0): 3.32 % of JNJ-63533054 at Gi2 and -6 % of JNJ-63533054 at Gi2 and 6 % of JNJ-63533054 at Gi2 | G protein activation, Gi3 (GPR139 (Gi3 activation); log [compound] M -7.5): 3 % of JNJ-63533054 at Gi2 and -5 % of JNJ-63533054 at Gi2 and 7.51 % of JNJ-63533054 at Gi2 | G protein activation, Gi3 (GPR139 (Gi3 activation); log [compound] M -8.0): -1 % of JNJ-63533054 at Gi2 and -3.25 % of JNJ-63533054 at Gi2 and 5 % of JNJ-63533054 at Gi2 | Emax (GPR139 (Gq activation); [1]): 22 ± 8% | EC50 (GPR139 (Gq activation); Supplementary Table 6): 10 µM | G protein activation, Gq (GPR139 (Gq activation); log [compound] M -4.5): 17 % of JNJ-63533054 at Gi2 and 24 % of JNJ-63533054 at Gi2 and 7.59 % of JNJ-63533054 at Gi2 | G protein activation, Gq (GPR139 (Gq activation); log [compound] M -5.0): 12 % of JNJ-63533054 at Gi2 and 15 % of JNJ-63533054 at Gi2 and 4 % of JNJ-63533054 at Gi2 | G protein activation, Gq (GPR139 (Gq activation); log [compound] M -5.5): 8 % of JNJ-63533054 at Gi2 and 7 % of JNJ-63533054 at Gi2 and -2.15 % of JNJ-63533054 at Gi2 | G protein activation, Gq (GPR139 (Gq activation); log [compound] M -6.0): 6.62 % of JNJ-63533054 at Gi2 and 3 % of JNJ-63533054 at Gi2 and -1.3 % of JNJ-63533054 at Gi2 | G protein activation, Gq (GPR139 (Gq activation); log [compound] M -6.5): 3.64 % of JNJ-63533054 at Gi2 and 0.578 % of JNJ-63533054 at Gi2 and -0.535 % of JNJ-63533054 at Gi2 | G protein activation, Gq (GPR139 (Gq activation); log [compound] M -7.0): 0.442 % of JNJ-63533054 at Gi2 and -1.25 % of JNJ-63533054 at Gi2 and -2 % of JNJ-63533054 at Gi2 | G protein activation, Gq (GPR139 (Gq activation); log [compound] M -7.5): 0.442 % of JNJ-63533054 at Gi2 and 0.122 % of JNJ-63533054 at Gi2 and 2.16 % of JNJ-63533054 at Gi2 | G protein activation, Gq (GPR139 (Gq activation); log [compound] M -8.0): -2 % of JNJ-63533054 at Gi2 and -0.213 % of JNJ-63533054 at Gi2 and 1.37 % of JNJ-63533054 at Gi2 | Emax (GPR139 (GoA activation); [1]): 79 ± 1% | EC50 (GPR139 (GoA activation); Supplementary Table 6): 5.01 µM | G protein activation, GoA (GPR139 (GoA activation); log [compound] M -4.5): 73 % of JNJ-63533054 at Gi2 and 70 % of JNJ-63533054 at Gi2 and 62 % of JNJ-63533054 at Gi2 | G protein activation, GoA (GPR139 (GoA activation); log [compound] M -5.0): 58 % of JNJ-63533054 at Gi2 and 53 % of JNJ-63533054 at Gi2 and 47 % of JNJ-63533054 at Gi2 | G protein activation, GoA (GPR139 (GoA activation); log [compound] M -5.5): 37 % of JNJ-63533054 at Gi2 and 33 % of JNJ-63533054 at Gi2 and 28 % of JNJ-63533054 at Gi2 | G protein activation, GoA (GPR139 (GoA activation); log [compound] M -6.0): 16 % of JNJ-63533054 at Gi2 and 13 % of JNJ-63533054 at Gi2 and 14 % of JNJ-63533054 at Gi2 | G protein activation, GoA (GPR139 (GoA activation); log [compound] M -6.5): 5.7 % of JNJ-63533054 at Gi2 and 1.59 % of JNJ-63533054 at Gi2 and 5.63 % of JNJ-63533054 at Gi2 | G protein activation, GoA (GPR139 (GoA activation); log [compound] M -7.0): -0.263 % of JNJ-63533054 at Gi2 and -1.74 % of JNJ-63533054 at Gi2 and 2.49 % of JNJ-63533054 at Gi2 | G protein activation, GoA (GPR139 (GoA activation); log [compound] M -7.5): -1.44 % of JNJ-63533054 at Gi2 and 0.514 % of JNJ-63533054 at Gi2 and 0.72 % of JNJ-63533054 at Gi2 | G protein activation, GoA (GPR139 (GoA activation); log [compound] M -8.0): -1.46 % of JNJ-63533054 at Gi2 and -2.26 % of JNJ-63533054 at Gi2 and 3.8 % of JNJ-63533054 at Gi2
